Reference: PubChem BioAssay (NCI)
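Growth conditions: 96-well plates. Treatment: test compound, 48 hours, 5 concentrations. Analysis: linear interpolation between bracketing concentrations; unreached endpoints set to highest concentration. At the TGI there is no net growth.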

How the values were obtained:
Test in all cases: growth of human tumour cells (NCI), 48 h
[1] = test system: UO-31 renal
[2] = test system: K-562 leukemia
[3] = test system: HCC-2998 colon
[4] = test system: HOP-92 NSCLC
[5] = test system: SNB-75 CNS
[6] = test system: MOLT-4 leukemia
[7] = test system: M19-MEL melanoma
[8] = test system: XF 498 CNS
[9] = test system: DMS 114 small cell lung
[10] = test system: SF-268 CNS
[11] = test system: RPMI-8226 leukemia
[12] = test system: TK-10 renal
[13] = test system: SN12C renal
[14] = test system: NCI-H522 lung
[15] = test system: SK-MEL-2 melanoma
[16] = test system: KM12 colon
[17] = test system: UACC-62 melanoma
[18] = test system: SK-MEL-28 melanoma
[19] = test system: HOP-18 NSCLC
[20] = test system: NCI-H460 lung
[21] = test system: SR leukemia
[22] = test system: IGROV1 ovarian
[23] = test system: CCRF-CEM leukemia
[24] = test system: OVCAR-8 ovarian
[25] = test system: COLO 205 colon
[26] = test system: SK-OV-3 ovarian
[27] = test system: EKVX NSCLC
[28] = test system: NCI-H226 lung
[29] = test system: OVCAR-3 ovarian
[30] = test system: LOX IMVI melanoma
[31] = test system: HOP-62 NSCLC
[32] = test system: A549 NSCLC
[33] = test system: OVCAR-4 ovarian
[34] = test system: HT29 colon
[35] = test system: HCT-15 colon
[36] = test system: SNB-19 CNS
[37] = test system: 786-0 renal
[38] = test system: UACC-257 melanoma
[39] = test system: U251 CNS
[40] = test system: M14 melanoma
[41] = test system: A498 renal
[42] = test system: HL-60(TB) leukemia
[43] = test system: SW-620 colon
[44] = test system: RXF 393 renal
[45] = test system: LXFL 529 NSCLC
[46] = test system: ACHN renal
[47] = test system: MALME-3M melanoma
[48] = test system: NCI-H23 lung
[49] = test system: KM20L2 colon
[50] = test system: SF-539 CNS
[51] = test system: HCT-116 colon
[52] = test system: SF-295 CNS
[53] = test system: DMS 273 small cell lung

Measured: TGI

Cc1cc2oc(=O)[nH]c(=S)c2c(C)c1C
> 100 µM: [1] | [2] | [3] | [4] | [5] | [6] | [7] | [8] | [9] | [10] | [11] | [12] | [13] | [14] | [15] | [16] | [17] | [18] | [19] | [20] | [21] | [22] | [23] | [24] | [25] | [26] | [27] | [28] | [29] | [30] | [31] | [32] | [33] | [34] | [35] | [36] | [37] | [38] | [39] | [40] | [41] | [42] | [43] | [44] | [45] | [46] | [47] | [48] | [49] | [50] | [51] | [52] | [53]
